What was measured:
Format in all cases: cell-based
[1] = biological target: T1, alpha 2C adrenergic receptor (Homo sapiens, UniProt P18825); test: RSAT (Receptor Selection and Amplification Technology) assay, alpha 2C; conditions: for EC50: NIH-3T3 cells cotransfected with receptor and Gq/i5; for efficacy or intrinsic activity (value in parentheses) Alpha 2C: ratio of maximal effect to that of standard full agonist brimonidine
T1 construct: expressed in transfected cells; host or cells: NIH-3T3 cells, transient cotransfection by calcium phosphate
T1 sequence (P18825 1-462): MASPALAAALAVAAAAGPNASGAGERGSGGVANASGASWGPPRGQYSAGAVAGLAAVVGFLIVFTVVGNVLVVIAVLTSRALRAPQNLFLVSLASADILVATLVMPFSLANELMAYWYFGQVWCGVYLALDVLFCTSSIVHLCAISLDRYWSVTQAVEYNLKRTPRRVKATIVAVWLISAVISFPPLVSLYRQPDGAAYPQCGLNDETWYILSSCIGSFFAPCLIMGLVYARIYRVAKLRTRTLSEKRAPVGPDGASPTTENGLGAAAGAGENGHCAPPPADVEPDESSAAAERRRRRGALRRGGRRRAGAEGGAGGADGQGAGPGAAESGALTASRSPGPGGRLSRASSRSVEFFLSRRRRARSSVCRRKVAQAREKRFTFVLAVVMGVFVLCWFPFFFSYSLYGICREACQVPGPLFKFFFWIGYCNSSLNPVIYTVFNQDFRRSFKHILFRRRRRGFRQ
Description: (§1) Activity was measured using the RSAT (Receptor Selection and Amplification Technology) assay, developed by Receptor Technologies, Inc. of Winooski, Vt. (now Acadia Pharmaceuticals of San Diego, Calif.), adapted for use with recombinant alpha2 adrenergic receptors in collaboration with Allergan. The assay measures receptor-mediated loss of contact inhibition that results in selective proliferation of receptor-containing cells in a mixed population of confluent cells. The increase in cell number is assessed with an appropriate transfected marker gene such as β-galactosidase, the activity of which can be easily measured in a 96-well format. Receptors that activate the G protein, Gq, elicit this response. Alpha2 receptors, which normally couple to Gi, activate the RSAT response when coexpressed with a hybrid Gq protein that has a Gi receptor recognition domain, called Gq/i5.
(§2) The assay is conducted as follows. NIH-3T3 cells are plated at a density of 2×10^6 cells in 15 cm dishes and maintained in Dulbecco's modified Eagle's medium supplemented with 10% calf serum. One day later, cells are cotransfected by calcium phosphate precipitation with mammalian expression plasmids encoding p-SV-β-galactosidase (5-10 μg), receptor (1-2 μg) and G protein (1-2 μg). 40 μg salmon sperm DNA may also be included in the transfection mixture to increase transfection efficiency. Fresh media is added on the following day and 1-2 days later, cells are harvested and frozen in 50 assay aliquots. Transfectant cells are thawed and 100 μl added to 100 μl aliquots of various concentrations of drugs in triplicate in 96-well dishes. Incubations continue 72-96 hr at 37°. After washing with phosphate-buffered saline, β-galactosidase enzyme activity is determined by adding 200 μl of the chromogenic substrate (consisting of 3.5 mM o-nitrophenyl-β-D-galactopyranoside and 0.5% of the non-ionic surfactant nonidet P-40 in phosphate buffered saline), incubating overnight at 30° and measuring optical density at 420 nm. The absorbency is a measure of enzyme activity, which depends on cell number and reflects a receptor-mediated cell proliferation. The EC50 and maximal effect of each drug at each alpha2 receptor is determined. The efficacy or intrinsic activity is calculated as a ratio of the maximal effect of the drug to the maximal effect of a standard full agonist for each receptor subtype. Brimonidine, also called UK14304, is used as the standard agonist for the alpha2A, alpha2B and alpha2C receptors. The RSAT assay is also discussed in Messier et al. (1995) High throughput assays of cloned adrenergic, muscarinic, neurokinin and neurotrophin receptors in living mammalian cells, Pharmacol. Toxicol. 76:308-11; see also Conklin et al. (1993) Substitution of three amino acids switches receptor specificity of Gqα to that of Giα, Nature 363:274-6; Both of these papers are incorporated by reference herein.

[2] = biological target: T2, alpha 2A adrenergic receptor (Homo sapiens, UniProt P08913); test: RSAT (Receptor Selection and Amplification Technology) assay, alpha 2A; conditions: for EC50: NIH-3T3 cells cotransfected with receptor and Gq/i5; for efficacy or intrinsic activity (value in parentheses) Alpha 2A: ratio of maximal effect to that of standard full agonist brimonidine
T2 construct: expressed in transfected cells; host or cells: NIH-3T3 cells, transient cotransfection by calcium phosphate
T2 sequence (P08913 1-465): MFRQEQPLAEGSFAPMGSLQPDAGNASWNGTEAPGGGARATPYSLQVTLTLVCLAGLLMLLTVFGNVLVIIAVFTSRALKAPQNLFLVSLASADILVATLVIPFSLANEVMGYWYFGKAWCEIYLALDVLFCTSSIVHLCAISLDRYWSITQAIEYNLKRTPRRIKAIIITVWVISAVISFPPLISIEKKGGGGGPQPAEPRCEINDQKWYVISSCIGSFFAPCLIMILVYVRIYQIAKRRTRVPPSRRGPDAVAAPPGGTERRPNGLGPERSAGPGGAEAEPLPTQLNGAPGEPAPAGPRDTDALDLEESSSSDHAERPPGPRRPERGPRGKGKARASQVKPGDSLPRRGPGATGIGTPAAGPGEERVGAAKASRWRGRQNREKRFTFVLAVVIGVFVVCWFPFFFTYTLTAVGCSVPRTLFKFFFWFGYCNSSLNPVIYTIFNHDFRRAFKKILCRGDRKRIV
Description: as §1, §2

[3] = biological target: T3, alpha 2B adrenergic receptor (Homo sapiens, UniProt P18089); test: RSAT (Receptor Selection and Amplification Technology) assay, alpha 2B; conditions: for EC50: NIH-3T3 cells cotransfected with receptor and Gq/i5; for efficacy or intrinsic activity (value in parentheses) Alpha 2B: ratio of maximal effect to that of standard full agonist brimonidine
T3 construct: expressed in transfected cells; host or cells: NIH-3T3 cells, transient cotransfection by calcium phosphate
T3 sequence (P18089 1-450): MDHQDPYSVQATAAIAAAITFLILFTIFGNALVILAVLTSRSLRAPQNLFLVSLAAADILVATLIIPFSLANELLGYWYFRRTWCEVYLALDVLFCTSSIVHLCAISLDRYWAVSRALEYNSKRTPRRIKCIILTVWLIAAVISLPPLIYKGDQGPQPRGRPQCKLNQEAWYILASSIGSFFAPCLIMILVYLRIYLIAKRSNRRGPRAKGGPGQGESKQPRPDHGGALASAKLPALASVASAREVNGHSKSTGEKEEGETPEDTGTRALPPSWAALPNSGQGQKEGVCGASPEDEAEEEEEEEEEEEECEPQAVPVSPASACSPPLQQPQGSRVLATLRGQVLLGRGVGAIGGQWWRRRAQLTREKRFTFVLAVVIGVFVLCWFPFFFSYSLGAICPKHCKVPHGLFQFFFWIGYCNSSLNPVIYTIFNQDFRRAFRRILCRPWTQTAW
Description: as §1, §2

SMILES	EC50 [1]	efficacy or intrinsic activity (value in parentheses) Alpha 2C [1]	EC50 [2]	efficacy or intrinsic activity (value in parentheses) Alpha 2A [2]	EC50 [3]	efficacy or intrinsic activity (value in parentheses) Alpha 2B [3]
Cc1cc(Cl)c(F)c(CNC(=S)NCCO)c1	278 nM	0.66	546 nM	0.31	62 nM	1.06
OCCNC(=S)NCc1c(F)cc(F)c(Cl)c1F	≥ 210000 nM		≥ 210000 nM		281 nM	0.58
OCCNC(=S)NCc1cc(Br)cc(Cl)c1F	> 2000 nM		≥ 210000 nM		117 nM	1.13
OCCNC(=S)NCc1cc(Br)cc(Br)c1F	1410 nM	0.58	≥ 210000 nM		116 nM	1.23
OCCNC(=S)NCc1c(Cl)ccc(Cl)c1F	1420 nM	0.78	≥ 210000 nM		89 nM	0.92
OCCNC(=S)NCc1cccc(OC(F)(F)F)c1	≥ 210000 nM		≥ 210000 nM		2390 nM	0.55
COc1cccc(F)c1CNC(=S)NCCO	406 nM	0.43	≥ 210000 nM		235 nM	0.92
OCCNC(=S)NCc1cc(I)ccc1F	322 nM	0.68	≥ 210000 nM		49 nM	0.76
Cc1cc(Br)cc(CNC(=S)NCCO)c1F	1490 nM	0.37	≥ 210000 nM		240 nM	0.8
Cc1cc(Cl)cc(CNC(=S)NCCO)c1F	181 nM	0.62	≥ 210000 nM		37.5 nM	1.02
OCCNC(=S)NCc1cc(C(F)(F)F)ccc1F	853 nM	0.7	≥ 210000 nM		523 nM	0.8
OCCNC(=S)NCc1cccc(C(F)(F)F)c1	≥ 210000 nM		≥ 210000 nM		495 nM	0.73
OCCNC(=S)NCc1cccc(Br)c1	≥ 210000 nM		295 nM	0.3	14 nM	0.9
OCCNC(=S)NCc1c(F)ccc(Cl)c1F	> 2000 nM		≥ 210000 nM		98 nM	0.83
OCCNC(=S)NCc1c(F)c(F)cc(F)c1F	2370 nM	0.51	≥ 210000 nM		243 nM	0.9
OCCNC(=S)NCc1cc(Cl)ccc1F	87 nM	0.6	≥ 210000 nM		17 nM	1.13
OCCNC(=S)NCc1c(Cl)cccc1Cl	≥ 210000 nM		≥ 210000 nM		380 nM	0.93
OCCNC(=S)NCc1ccc(F)cc1C(F)(F)F	> 2000 nM		≥ 210000 nM		478 nM	0.72
Cc1ccccc1CNC(=S)NCCO	≥ 210000 nM		≥ 210000 nM		174 nM	0.7
COc1cccc(CNC(=S)NCCO)c1	≥ 210000 nM		≥ 210000 nM		898 nM	0.40
OCCNC(=S)NCc1ccc(F)c(F)c1F	≥ 210000 nM		≥ 210000 nM		482 nM	0.76

Source: patent US6545182B2, “Methods and compositions for modulating alpha adrenergic receptor activity” (Allergan Sales, Inc., priority 2000, dated 2003)
